Data reported in the supplement of paper PMC10307832.

Tests used:
Assay in all cases: relative viability (nuclei count vs DMSO), 5 days (fraction); higher = more cells survive
Afatinib + Pictilisib = compound: CN(C)C/C=C/C(=O)Nc1cc2c(Nc3ccc(F)c(Cl)c3)ncnc2cc1O[C@H]1CCOC1 [Afatinib] + CS(=O)(=O)N1CCN(Cc2cc3nc(-c4cccc5[nH]ncc45)nc(N4CCOCC4)c3s2)CC1 [Pictilisib] (partner 1 µM)
In short: (§1)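 Relative viability divides the nuclei count in treated wells by that in vehicle wells. Lung cancer cell lines were seeded in 1536-well plates, dosed by pin tool the next day, and fixed and stained after 5 days in one step with final 0.05% Triton X-100, 1% formaldehyde and 1 ug/ml Hoechst. Dosing was a single drug or a fixed anchor-drug dose plus five library-drug doses (not always all listed) in √10 steps, and values are medians of duplicate plates imaged at 4×.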

Afatinib + Alpelisib = compound: CN(C)C/C=C/C(=O)Nc1cc2c(Nc3ccc(F)c(Cl)c3)ncnc2cc1O[C@H]1CCOC1 [Afatinib] + Cc1nc(NC(=O)N2CCC[C@H]2C(N)=O)sc1-c1ccnc(C(C)(C)C(F)(F)F)c1 [Alpelisib] (partner 2 µM)
In short: as §1

Afatinib + Phenformin = compound: CN(C)C/C=C/C(=O)Nc1cc2c(Nc3ccc(F)c(Cl)c3)ncnc2cc1O[C@H]1CCOC1 [Afatinib] + N=C(N)NC(=N)NCCc1ccccc1 [Phenformin] (partner 250 µM)
In short: as §1

Afatinib + AZD7762 = compound: CN(C)C/C=C/C(=O)Nc1cc2c(Nc3ccc(F)c(Cl)c3)ncnc2cc1O[C@H]1CCOC1 [Afatinib] + NC(=O)Nc1cc(-c2cccc(F)c2)sc1C(=O)N[C@H]1CCCNC1 [AZD7762] (partner 0.2 µM)
In short: as §1

Cell Line	relative viability (Afatinib + Pictilisib; first compound 0.005 µM)	relative viability (Afatinib + Pictilisib; first compound 0.01581 µM)	relative viability (Afatinib + Pictilisib; first compound 0.05 µM)	relative viability (Afatinib + Pictilisib; first compound 0.1581 µM)	relative viability (Afatinib + Pictilisib; first compound 0.5 µM)	relative viability (Afatinib + Alpelisib; first compound 0.005 µM)	relative viability (Afatinib + Alpelisib; first compound 0.01581 µM)	relative viability (Afatinib + Alpelisib; first compound 0.05 µM)	relative viability (Afatinib + Alpelisib; first compound 0.1581 µM)	relative viability (Afatinib + Alpelisib; first compound 0.5 µM)	relative viability (Afatinib + Phenformin; first compound 0.005 µM)	relative viability (Afatinib + Phenformin; first compound 0.01581 µM)	relative viability (Afatinib + Phenformin; first compound 0.05 µM)	relative viability (Afatinib + Phenformin; first compound 0.1581 µM)	relative viability (Afatinib + Phenformin; first compound 0.5 µM)	relative viability (Afatinib + AZD7762; first compound 0.005 µM)	relative viability (Afatinib + AZD7762; first compound 0.01581 µM)	relative viability (Afatinib + AZD7762; first compound 0.05 µM)	relative viability (Afatinib + AZD7762; first compound 0.1581 µM)	relative viability (Afatinib + AZD7762; first compound 0.5 µM)
NCI-H1792	0.303	0.325	0.255	0.241	0.243	0.64	0.732	0.722	0.674	0.668	0.16	0.198	0.398	0.2	0.238	0.615	0.534	0.703	0.643	0.466
NCI-H1793	0.36	0.23	0.362	0.39	0.31	0.57	0.658	0.555	0.544	0.527	0.244	0.316	0.325	0.273	0.321	0.193	0.304	0.451	0.268	0.231
NCI-H1915	1.05	0.993	0.951	0.912	0.855	1.09	1.09	1.06	1.02	0.972	0.389	0.379	0.363	0.378	0.33	0.67	0.708	0.685	0.723	0.682
NCI-H1944	0.387	0.307	0.335	0.319	0.335	0.677	0.763	0.693	0.465	0.518	0.19	0.195	0.188	0.174	0.166	0.297	0.496	0.413	0.343	0.404
NCI-H1975	0.293	0.185	0.164	0.17	0.0947	0.628	0.511	0.43	0.197	0.206	0.444	0.413	0.373	0.223	0.166	0.867	0.676	0.538	0.43	0.312
NCI-H1993	0.93	0.937	0.983	1.03	0.868	0.608	0.771	0.721	0.765	0.705	0.596	0.645	0.656	0.639	0.589	0.548	0.521	0.544	0.432	0.416
NCI-H2085	0.486	0.438	0.459	0.494	0.435	0.944	0.873	0.812	0.659	0.803	0.614	0.629	0.606	0.509	0.542	0.753	0.957	0.897	0.636	0.753
NCI-H2087	1.12	0.907	0.86	0.904	0.72	1.23	1.18	1	1.28	1.02	0.454	0.475	0.446	0.446	0.373	1.15	1.45	1.27	1.31	1.21
NCI-H2126	0.487	0.447	0.36	0.436	0.37	0.726	0.722	0.653	0.504	0.444	0.584	0.509	0.485	0.434	0.483	1.02	1.02	0.822	0.776	0.793
NCI-H2170	0.285	0.228	0.237	0.185	0.209	0.571	0.421	0.314	0.207	0.233	0.368	0.383	0.335	0.216	0.208	0.66	0.55	0.245	0.144	0.151
NCI-H2347	0.737	0.665	0.672	0.596	0.841	1.11	0.979	1.1	1.1	0.889	0.357	0.456	0.31	0.381	0.415	0.568	0.738	0.589	0.725	0.541
NCI-H2405	0.445	0.47	0.611	0.473	0.57	0.703	0.804	0.875	0.708	0.913	0.339	0.413	0.435	0.363	0.392	0.763	0.759	0.839	0.666	0.562
NCI-H3122	0.558	0.628	0.663	0.557	0.621	0.81	0.685	0.716	0.738	0.705	0.385	0.382	0.415	0.363	0.423	1.07	0.985	0.991	0.883	1.05
PC-3 [JPC-3]	0.429	0.323	0.339	0.3	0.355	0.49	0.392	0.377	0.362	0.354	0.338	0.338	0.258	0.285	0.306	0.52	0.413	0.307	0.353	0.422
PC-14	0.109	0.0863	0.108	0.0958	0.0837	0.169	0.15	0.137	0.127	0.163	0.173	0.123	0.175	0.161	0.171	0.235	0.157	0.139	0.166	0.14
RERF-LC-KJ	0.543	0.507	0.414	0.35	0.392	0.784	0.636	0.601	0.572	0.502	0.423	0.393	0.342	0.315	0.335	1.01	0.827	0.865	0.84	0.778
